Laboratory results reported in patent US7834065B2, “Medical-use two part reactive adhesive and medical-use resin having self-degradation property” (BMG Incorporated, priority 2006, dated 2010).

Test system: mouse established cell line L929
Test: Cytotoxicity test (neutral red uptake, NR50)
Assay type: cell-based
Conditions: L929 cells, 2 days incubation with sample; concentration at which 50% of the cells are killed
Protocol: The cytotoxicity test was made according to methods described in J. Biomed. Mater. Res. 29, 829-835 (1995) and by use of a mouse established cell line L929. In detail, cell dispersion was prepared to be 10,000 cells/mL; and 0.1 mL of the cell dispersion was sowed in each well of the 96-well culture plate and incubated at 37° C. for 3 days. Subsequently, each of the aqueous solutions mentioned above was diluted to one of various concentrations, and was charged into respective well by 0.1 mL. Then, incubation was further continued for 2 days. Subsequently, 0.1 mL of neural red culture-medium solution as prepared as 150 microgram/mL was added into the each well; and the incubation was made at 37° C. for 3 hours. After the incubation, culture medium was removed; and the cells were fixed by 1 wt % glutaraldehyde aqueous solution and thereafter air-dried. Subsequently, 0.1 mL of water/ethanol solution (equal-volume mixture) having 1 wt % of acetic acid was added; and then neural red molecules that had been taken into the cells were extracted. Light absorbency at 541 nm was measured and NR50 values were obtained from result of this measurement. The NR50 value indicates a concentration at which 50% of the cells are killed. The smaller the NR50 value becomes, the larger becomes the toxicity.

SMILES: O=CCCCC=O [Glutaraldehyde]
- NR50 value: 3.9 ± 0.7 µg/mL

SMILES: C=O [Formaldehyde]
- NR50 value: 1.7 ± 02 µg/mL
